Drawing on PubChem BioAssay AID732 (Emory University Molecular Libraries Screening Center, 2007), this text covers vessel count % control for 86 compounds.

“And” between values parts separate entries of the source, which are not always exact repeats. Equal entries are not always repeated. The source made the active and inactive calls. The rule behind the calls is not given here. Peptide text beside a SMILES is read from it. * marks the point of attachment. Cbz = O=C(OCc1ccccc1)*

The test system of this assay is in vivo angiogenesis, blood vessel count. In words: angiogenesis inhibition in living animals, in vivo study, HTS (AID 732).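 Note: zebrafish embryos dosed at one day post fertilization; 0% = reference inhibitor and 100% = plate mean.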 Conditions: stronger effect = lower value;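 tested at 30 µM in the well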.
On to `CC1=C(C(=O)O)N2C(=O)[C@@H](NC(=O)C(N)C3=CCC=CC3)[C@H]2SC1` (stereo partly specified), for which the vessel count % control is 98.7% (inactive). The figure for `CCOC(=O)C12CC1/C(=N/O)c1ccccc1O2` (stereo unspecified) is 104% (inactive); for `COc1ccc(-c2ccc(N)[n+](CCCC(=O)O)n2)cc1` it is 105% (inactive).

With `Nc1ccn([C@@H]2O[C@H](CO)[C@@H](O)[C@@H]2O)c(=O)n1`, the vessel count % control was 104% (inactive). With `CCCC[C@@]1(C2CCCC2)Cc2cc(OCC(=O)O)c(Cl)c(Cl)c2C1=O` the figure was 121% (inactive); with `NC(=O)CC[C@H](N)C(=O)O`, 104% (inactive); with `Oc1[nH]c2ccccc2c1C1=Nc2ccc(Br)cc2/C1=N\OCCN1CCNCC1`, 86.4% (inactive) and 40.6% (inactive).

Consider `O=[N+]([O-])c1ccc2nc(N3CCNCC3)ccc2c1`, for which the vessel count % control is 118% (inactive). With `S=C(S)OC1CC2CC1C1CCCC21` (stereo unspecified) the figure was 86.8% (inactive); with `C[N+]1(C)C2CC(OC(=O)[C@H](CO)c3ccccc3)CC1C1OC12` (stereo partly specified), 105% (inactive) and 146% (inactive). Turning to `N[C@@H](CS(=O)O)C(=O)O`, the vessel count % control was 111% (inactive). On to `O=c1c2ccccc2nc2n1CCc1c-2[nH]c2ccccc12`, for which the vessel count % control is 64.3% (inactive).

With `O=c1[nH]c2ccccc2n1CCCN1CCN(C(c2ccccc2)c2ccccc2)CC1`, the vessel count % control is 120% (inactive). With `CCC1(C)CC(=O)NC1=O` (stereo unspecified), the vessel count % control is 95.8% (inactive). The figure for `COc1cccc2c1[C@@H]1CN(CCCCn3c(=O)[nH]c4c(sc5ncc(-c6ccccc6)nc54)c3=O)C[C@@H]1CO2` is 87.9% (inactive); for `Cc1nnc(SCC2=C(C(=O)O)N3C(=O)[C@@H](NC(=O)Cn4cnnn4)[C@H]3SC2)s1` it is 90.8% (inactive); for `NCCCC(=O)O` it is 109% (inactive). With `COc1ccccc1N1CCN(CCCCN2C(=O)c3ccccc3C2=O)CC1` the figure was 117% (inactive). For `CNC[C@H](O)c1cccc(O)c1`, the vessel count % control is 109% (inactive). With `CC1CNCCN1S(=O)(=O)c1cccc2cnccc12` (stereo unspecified) the figure was 97.5% (inactive) and 98.4% (inactive).

For `N#CC(C#N)=Cc1ccc(O)c(O)c1`, the vessel count % control was 119% (inactive). For `CN[C@@H](C)[C@H](O)c1ccccc1`, the vessel count % control is 91.4% (inactive). The figure for `COc1ccc([C@@H]2Sc3ccccc3N(CCN(C)C)C(=O)[C@@H]2OC(C)=O)cc1` is 107% (inactive). The figure for `CN=C(N)NCCC[C@H](N)C(=O)O` is 93% (inactive); for `CN(C)CCOC(C)(c1ccccc1)c1ccccn1` (stereo unspecified) it is 95.7% (inactive). In the case of `COc1cc2c(cc1C(F)(F)F)N(C(=O)Nc1cc(F)cc(-c3cccnc3)c1)CC2`, the vessel count % control was 95.3% (inactive). With `COc1ccccc1N1CCN(CC(O)COc2cccc3ccccc23)CC1` (stereo unspecified), the vessel count % control is 91.2% (inactive). With `NCC#Cc1ccccc1` the figure was 107% (inactive); with `O=c1[nH]c2cc(Cl)c(Cl)cc2[nH]c1=O`, 109% (inactive); with `CCC1(c2ccccc2)C(=O)NCNC1=O`, 91.4% (inactive). With `CCCCCCCCCCCCCC(=O)O[C@@H]1[C@@H](C)[C@@]2(O)[C@@H](C=C(CO)C[C@@]3(O)C(=O)C(C)=C[C@@H]23)C2C(C)(C)[C@@]21OC(C)=O` (stereo partly specified) the figure was 0% (inactive); with `COc1[nH]c2ccc(F)cc2c1C(=O)OCC1CCN(CCNS(C)(=O)=O)CC1`, 99.6% (inactive).

For `CN(C)CCCN1c2ccccc2CCc2ccccc21`, the vessel count % control was 104% (inactive). With `CCCC(C(=O)OCCN(CC)CC)(c1ccccc1)c1ccccc1` the figure was 98% (inactive). Take `O=C1N(c2ccccc2)c2ccccc2C1(Cc1ccncc1)Cc1ccncc1`: the vessel count % control was 96.6% (inactive). The figure for `NS(=O)(=O)c1cc2c(cc1Cl)NC=NS2(=O)=O` is 135% (inactive). With `Cc1nc2ccccn2c(=O)c1CCN1CCC(C(=O)c2ccc(F)cc2)CC1` the figure was 94.9% (inactive); with `O=S(=O)(O)C1CCNCC1`, 89.3% (inactive). With `O=[N+]([O-])c1cccc2cn[nH]c12` the figure was 136% (inactive). Take `CN1C2CCC1CC(OC(=O)c1c[nH]c3ccccc13)C2` (stereo unspecified): the vessel count % control was 91.1% (inactive). With `COc1cc(CCN)ccc1O` the figure was 124% (inactive); with `c1cc(CN2CCCCC2)cc(OCCCNc2nc3ccccc3s2)c1`, 112% (inactive); with `O=C1c2c(O)cc(O)cc2OC(c2ccc(O)c(O)c2)C1O` (stereo unspecified), 80.8% (inactive). With `O=c1c(O)c(-c2cc(O)c(O)c(O)c2)oc2cc(O)cc(O)c12` the figure was 87.9% (inactive); with `CCn1cnc2c(Nc3cccc(Cl)c3)nc(N[C@@H]3CCCC[C@@H]3N)nc21`, 88.4% (inactive); with `O=C(O)CC1CCCc2ccccc2C1O` (stereo unspecified), 137% (inactive). With `CCCN1CC[C@@H]2c3cc(O)ccc3CC[C@@H]21` the figure was 88.5% (inactive) and 103% (inactive); with `Oc1ccc2c3c1O[C@H]1c4oc5ccccc5c4C[C@@]4(O)C(C2)N(CC2CC2)CCC314` (stereo partly specified), 93.1% (inactive). As to `O=C(O)c1ccccc1Nc1cccc(OCc2ccc3ccccc3n2)c1`, the vessel count % control is 85.3% (inactive). With `CC(C)C[C@H]1C(=O)N2CCC[C@H]2[C@]2(O)O[C@](NC(=O)[C@@H]3C=C4c5cccc6[nH]c(Br)c(c56)C[C@H]4N(C)C3)(C(C)C)C(=O)N12` the figure was 110% (inactive). Take `O=c1[nH]ccc2c(O)cccc12`: the vessel count % control is 0% (inactive). The figure for `CCn1c(=O)[nH]c2cc(Cl)c(Cl)cc21` is 87.7% (inactive); for `O=Nc1c(-c2c(O)[nH]c3ccc([N+](=O)[O-])cc23)[nH]c2ccc(Br)cc12` it is 79.3% (inactive). `Brc1ccc([C@H]2CN3CCSC3=N2)cc1`: the vessel count % control was 94.7% (inactive). With `C[C@H]1c2cccc(O)c2C(O)=C2C(=O)[C@]3(O)C(O)=C(C(N)=O)C(=O)[C@@H](N(C)C)[C@@H]3[C@@H](O)[C@@H]21` the figure was 91.8% (inactive). Regarding `N#C/C(=C\c1ccc(O)c(O)c1)C(=O)NCCc1ccccc1`, the vessel count % control is 115% (inactive). With `C[C@]12CC[C@H]3[C@@H](CCC4C[C@H](O)CC[C@@]43C)[C@@H]1CC[C@@H]2O` (stereo partly specified) the figure was 106% (inactive); with `O=C(O)[C@@H]1C[C@H](C(=O)O)N1`, 59.7% (inactive). The figure for `CN[C@@H]1C[C@@H](c2ccc(Cl)c(Cl)c2)c2ccccc21` is 0% (inactive); for `CP(=O)(O)C1=CCNCC1` it is 116% (inactive); for `CC(C)[C@H](NC(=O)OCc1ccccc1)C(=O)N[C@H](C=O)Cc1ccccc1` (Cbz-Val-Phe-aldehyde) it is 107% (inactive). With `O=C(Nc1cc(C(=O)Nc2ccc(S(=O)(=O)O)cc2S(=O)(=O)O)cc(C(=O)Nc2ccc(S(=O)(=O)O)cc2S(=O)(=O)O)c1)Nc1cc(C(=O)Nc2ccc(S(=O)(=O)O)cc2S(=O)(=O)O)cc(C(=O)Nc2ccc(S(=O)(=O)O)cc2S(=O)(=O)O)c1` the figure was 118% (inactive); with `Cn1c(=O)c2[nH]c(C3CCCC3)nc2n(C)c1=O`, 104% (inactive). In the case of `CCCCOc1cc(CC2CNC(=O)N2)ccc1OC` (stereo unspecified), the vessel count % control is 106% (inactive). With `CCCN(CCc1ccccc1)C1CCc2c(O)cccc2C1` (stereo unspecified) the figure was 88.9% (inactive).

Regarding `CCN(CC)CCNC(=O)c1cc(Cl)c(N)cc1OC`, the vessel count % control was 99.4% (inactive). With `OC[C@H]1O[C@@H](n2cnc3c(N[C@H]4CC5CCC4C5)ncnc32)[C@H](O)[C@@H]1O` (stereo partly specified) the figure was 77.1% (inactive); with `NCCNS(=O)(=O)c1cccc2cnccc12`, 98.2% (inactive). The figure for `c1ccc2nc(C3=NCCN3)ccc2c1` is 97.4% (inactive).

On to `O=C(O)Cc1ccc(O)c(O)c1`, for which the vessel count % control is 107% (inactive).

In the case of `O=C(O)c1cc(=O)cc(C(=O)O)[nH]1`, the vessel count % control was 86.1% (inactive).

For the compound `C#CCOC(=O)C1=CCCN(C)C1`, the vessel count % control was 106% (inactive).

`CCC(=O)N1CCN(C(=O)c2ccccc2)CC1`: the vessel count % control was 134% (inactive). With `O=C(O)C1CCCN(CCC=C(c2ccccc2)c2ccccc2)C1` (stereo unspecified) the figure was 88.5% (inactive); with `CC(C(=O)O)c1ccc(CC2CCCC2=O)cc1` (stereo unspecified), 113% (inactive). Consider `O=Nc1ccc2oc(=O)ccc2c1`, for which the vessel count % control is 95% (inactive).

On to `O=C1Cc2c([nH]c3ccc(Br)cc23)-c2ccccc2N1`, for which the vessel count % control was 101% (inactive). The figure for `O=C(O)CCCCCCCC(=O)O` is 95.3% (inactive); for `CN(C(=O)CCCOc1ccc2[nH]c(=O)ccc2c1)C1CCCCC1` it is 94.5% (inactive).

With `COc1cc2c(cc1OC)-c1cc(=Nc3c(C)cc(C)cc3C)n(C)c(=O)n1CC2`, the vessel count % control was 58.5% (inactive). In the case of `CC(=O)N[C@@H](Cc1c[nH]c2ccccc12)C(=O)OCc1cc(C(F)(F)F)cc(C(F)(F)F)c1`, the vessel count % control was 70.4% (inactive). With `CN1CCN(c2ccc3ccccc3n2)CC1` the figure was 104% (inactive); with `Cc1scc2c1N(C(=O)CN1CCN(C)CC1)c1ccccc1NC2=O`, 93.3% (inactive); with `CN(C)CCC(c1ccc(Cl)cc1)c1ccccn1` (stereo unspecified), 128% (inactive). The figure for `CN1CCc2cccc(Cl)c2CC1` is 93.2% (inactive); for `Nc1nc2ccc(OC(F)(F)F)cc2s1` it is 77% (inactive).
